# In patent publication US20230241142A1, “USE OF A POLAR EXTRACT OF SKELETONEMA IN PHOTODYNAMIC THERAPY” (IFREMER, priority 2020, published 2023):
# Assays:
# Assay type in all cases: cell-based
# [1] = test system: human sebocytes of the SEBO662AR line; test: anti-lipogenic effect: total lipids (BODIPY probe) in stimulated sebocytes; conditions: cells stimulated with lipogenic mixture containing androgens + Cerulenin 10 µM
# Procedure: The effect of S. marinoï polar algae extract on the overproduction of lipids was studied on human sebocytes of the SEBO662AR line (BIOALTERNATIVES line) stimulated by lipogenic and androgenic factors.
# SEBO662AR human sebocytes were first cultured at 37° C. in the presence of 5% CO2 and antibiotics in a dedicated culture medium. After at least one day of culturing, lipogenesis is induced in the SEBO662AR cells by their incubation in the presence of lipogenic and androgenic factors. The cells are then incubated in the presence or in the absence of 3 distinct concentrations of the polar extract. As a positive control of lipogenesis inhibitory activity, the SEBO662AR cells are incubated in the presence of cerulenin. At the end of the incubation period, the total lipids are fluorescently labelled, and the inhibition of lipogenesis is determined for each condition.
# [2] = test system: normal human epidermal keratinocytes (NHEK); test: cell viability (WST-8) of Poly(I:C)-stimulated keratinocytes; conditions: NHEK stimulated with Poly(I:C) 1 µg/mL + Bafilomycin 100 nM
# Procedure: The anti-inflammatory properties of S. marinoï polar algae extract were evaluated on normal human epidermal keratinocytes (NHEK)
# (§1) These NHEK human epidermal keratinocytes were seeded in K-SFM medium supplemented with 0.25 ng/mL of EGF (Epidermal Growth Factor), 25 µg/mL of pituitary extract and 25 µg/mL of Gentamycin in 96-well plates to then be incubated at 37° C. under an atmosphere containing 5% CO2. After at least one day of culturing, the NHEK cells are pre-incubated for 24 hours in the presence or absence of different concentrations of the S. marinoï polar extract. As a positive control of anti-inflammatory activity, NHEK cells were also pre-incubated in the presence of bafilomycin (100 nM). After this pre-incubation, the treatments were renewed and the NHEK cells are then incubated for 24 hours in the presence of poly (I:C) for inducing inflammation. A control condition without inflammation inducer (unstimulated control) was performed in parallel.
# [3] = test system: normal human epidermal keratinocytes (NHEK); test: anti-inflammatory effect: IL-6 secreted by Poly(I:C)-stimulated keratinocytes (ELISA); conditions: NHEK stimulated with Poly(I:C) 1 µg/mL + Bafilomycin 100 nM
# Procedure: as §1, with “The anti-inflammatory properties of S. marinoï polar algae extract were evaluated on normal human epidermal keratinocytes (NHEK) These” for “These”, “parallel. After incubation, the culture supernatant was collected to determine the level of keratinocyte inflammation by ELISA by measuring the amounts of IL-6 secreted.” for “parallel.”
Compound,Lipids (BODIPY® probe) Fluorescence intensity /Number of nuclei [1],Stimulation % [1] [%],Cell viability (WST-8) [2],IL6 [3] [pg/mL]
"C/C=C/C/C=C/CCC(=O)[C@H]1O[C@H]1C(N)=O [Cerulenin, cerulenin]",188 853^∗∗,63,,
"CO/C1=C\C(C)=C\[C@@H](C)[C@@H](O)[C@@H](C)C/C(C)=C/C=C/[C@H](OC)[C@@H]([C@@H](C)[C@@H](O)[C@H](C)[C@@]2(O)C[C@@H](O)[C@H](C)[C@@H](C(C)C)O2)OC1=O [Bafilomycin, bafilomycin]",,,100,13
